Data published in patent US5563130A, “Methods for inhibiting angiogenesis, proliferation of endothelial or tumor cells and tumor growth” (American Cyanamid Company, priority 1994, dated 1996).

Experiments:
Format in all cases: cell-based
A2780S = assay: Antiproliferative activity in human ovarian tumor cell line A2780S; conditions: PROTOCOL 1 and PROTOCOL 2
Description: (§1) PROTOCOL 1, 2, and 3 are described in greater detail hereinbelow. In general, according to PROTOCOLS 1 and 2, the target ABAE and/or Human Tumor cells are exposed to the compound of Formula I for 48 hours. PROTOCOL 3 exposes ABAE cell to the compound for 4 days. A detailed description of the protocol is as follows:
(§2) Antiproliferative Activity in Human Tumor and Adult Bovine Aortic Endothelial (ABAE) Cell Lines
(§3) The antiproliferative activity of the compounds of Formula I of the present invention is evaluated in a panel comprised of human tumor cell lines and an adult bovine aortic endothelial cell line (ABAE). The human tumor cell lines are from:
(§4) All cell lines are maintained in log phase in RPMI 1640 media, supplemented with 5% fetal calf serum, penicillin/streptomycin and 2 mM L-glutamine. Cultures are renewed after 20 passages with cells from a fresh stock of batch-frozen early passage cells. Cell lines are routinely checked for mycoplasma contamination (Genprobe). In a laminar flow hood, cells (1-5×10^4) are plated into 96-well microtiter plates in a volume of 0.1 ml/well with a bulk microtiter dispenser (Denley). […] At this concentration, dimethylsulfoxide has no effect on cell growth. Compounds are added using a Tomtec dispenser which simultaneously dispenses from one 96-well plate, containing the drug dilutions, to the plates containing the cells. After two days of continuous drug exposure, 50% cold trichloroacetic acid (TCA) is added to 10% final concentration to fix the cells, and after 60 minutes at 4° C., the TCA is aspirated and the plates are washed 5 times with deionized water using a microtiter plate washer. The number of cells on the plate are quantitated using a protein dye-binding assay (Monks et al., 1991). A 0.4% solution of the dye, sulforhodamine B, in glacial acetic acid is added to the plates, and the plates are washed 5 times with 1% glacial acetic acid using the automatic plate washed. The bound stain is solubilized with 0.1 ml of 10 mM Tris base. The optical densities are read from an automatic spectrophotometric plate reader (Dynatech) directly to a main frame computer (VAX 8600).
(§5) Positive controls, that include standard chemotherapeutic drugs (i.e., adriamycin, cisplatin, etc.), are included in every experiment.
(§6) Background optical density measurements (complete media-cells, and complete media+drug-cells) are automatically subtracted from the appropriate control and test wells. Mean values and standard errors are determined from duplicate wells. A measure is also made of the optical density at time when the drugs are added. The number of cells after treatment (P), as % of control, is calculated for every concentration of drug, as follows: [formula] wherein: T is optical density measurement for treated cells after 48 hours;
(§7) C is optical density measurement for untreated cells after 48 hours;
(§8) Co is optical density measurement for cells at the time of drug addition.
(§9) IC50 of growth inhibition is calculated from the sets of P values using the RS-1 data package (BBN Software).
(§10) The antiproliferative activity of the compounds of Formula I is evaluated in a panel comprised of human tumor cell lines and an adult bovine aortic endothelial cell line (ABAE) as listed in PROTOCOL 1. This assay is a modification of PROTOCOL 1. The modifications include:
(§11) 1) each concentration for each compound is tested in a single well;
(§12) 2) compounds are tested at 20, 4, 0.8, 0.16 microgram/ml and additionally in some experiments at 100 and 0.32 microgram/ml;
(§13) 3) samples are pipetted into a 96-well plate for each of the cell lines by a Beckman Biomek 1000 SL robot;
(§14) 4) after fixing with TCA each well is washed with 0.35 ml distilled water twice, not five times;
(§15) 5) after staining with sulforhodamine B each well is washed 3 times, not five times; […]

A2780/DDP = assay: Antiproliferative activity in human ovarian tumor cell line A2780/DDP; conditions: PROTOCOL 1 and PROTOCOL 2
Description: as §1, §2, §3, §4, §5, §6, §7, §8, §9, §10, §11, §12, §13, §14, §15

MIP = assay: Antiproliferative activity in human colon tumor cell line MIP; conditions: PROTOCOL 1 and PROTOCOL 2
Description: as §1, §2, §3
(§16) 2) Colon tumors: MIP, CaCo2, and SW620.
as §4, §5, §6, §7, §8, §9, §10, §11, §12, §13, §14, §15

CACO2 = assay: Antiproliferative activity in human colon tumor cell line CACO2; conditions: PROTOCOL 1 and PROTOCOL 2
Description: as §1, §2, §3, §16
All cell lines are maintained in log phase in RPMI 1640 media, supplemented with 5% fetal calf serum, penicillin/streptomycin and 2 mM L-glutamine. […] The number of cells on the plate are quantitated using a protein dye-binding assay (Monks et al., 1991). […] The optical densities are read from an automatic spectrophotometric plate reader (Dynatech) directly to a main frame computer (VAX 8600). […]
Background optical density measurements (complete media-cells, and complete media+drug-cells) are automatically subtracted from the appropriate control and test wells. Mean values and standard errors are determined from duplicate wells. […]

HTB 16 = assay: Antiproliferative activity in human tumor cell line HTB 16; conditions: ovarian tumor line; PROTOCOL 1 and PROTOCOL 2
Description: as §1, §2, §3, §4, §5, §6, §7, §8, §9, §10, §11, §12, §13, §14, §15

SW620 = assay: Antiproliferative activity in human colon tumor cell line SW620; conditions: PROTOCOL 1 and PROTOCOL 2
Description: as §1, §2, §3, §16, §4, §5, §6, §7, §8, §9, §10, §11, §12, §13, §14, §15

Human Tumor Cell lines = assay: Antiproliferative activity in panel of human tumor cell lines
Description: as §1, §2, §3, §16, §4, §5, §6, §7, §8, §9, §10, §11, §12, §13, §14, §15

C=CCN(CC=C)CC(=O)Nc1ccc2c(c1O)C(=O)C1=C(O)[C@]3(O)C(=O)C(C(N)=O)=C(O)[C@@H](N(C)C)C3CC1C2.Cl.Cl (stereo partly drawn) [Example 2]
A2780S IC50 (A2780S): 1.5 µg/mL
A2780/DDP IC50 (A2780/DDP): 4.0 µg/mL
MIP IC50 (MIP): 4.0 µg/mL
CACO2 IC50 (CACO2): 4.0 µg/mL
HTB 16 IC50 (HTB 16): 1.5 µg/mL
SW620 IC50 (SW620): 1.5 µg/mL
inhibition of cell growth at the highest concentrations (Human Tumor Cell lines; FIG. 2, 6 human tumor cell lines, highest concentrations): < 100%
AVERAGE IC50 FOR TUMOR CELL LINES (Human Tumor Cell lines; average over the tested human tumor cell lines): 2.75 µg/mL
Dead floating cells (Human Tumor Cell lines; even at the highest concentration): not observed
